Assay results from US20040176321A1, “Compositions of benzoquinolizine carboxylic acid antibiotic drugs” (priority 2002, published 2004).

Assays:
[1] = Solubility study with β-cyclodextrin and hydroxypropyl β-cyclodextrin; assay type: physicochemical; settings: ca. 24 hours, 27° C.
Description: The flasks were kept ca. 24 hours on a mechanical shaker, maintained at 27° C. and 140 rpm. The solutions were filtered through 0.2 micron syringe filter. The filtrates were diluted appropriately and injected on HPLC. The amounts dissolved were determined by comparing the sample peak area with peak area of standard solution.

[2] = Solubility at ambient temperature (in water); assay type: physicochemical
pKa value = assay type: physicochemical
Wistar rats = settings: rat, in vivo, iv
Description: Wistar rats of body weight range 90-100 gm were treated with i.v. administered above test compositions in doses specified in the table below for a period of 7 days to 28 days. The test doses were administered by injecting 0.5 ml-1.0 ml of test compositions via tail vein of each rat with the help of graduated 1 ml disposable syringe fitted with 26½ G needle. Each repeat dose was administered in 5 male and 5 female rats. Animals were monitored for the induction of phlebitis or its progression to complete venous blockade.

amount dissolved with HP-β-CD ([1]; HP-β-CD 0 mg/ml) [mg/mL]	amount dissolved with HP-β-CD ([1]; HP-β-CD 2 mg/ml) [mg/mL]	amount dissolved with HP-β-CD ([1]; HP-β-CD 5 mg/ml) [mg/mL]	amount dissolved with HP-β-CD ([1]; HP-β-CD 10 mg/ml) [mg/mL]	amount dissolved with β-CD ([1]; β-CD 0 mg/ml) [mg/mL]	amount dissolved with β-CD ([1]; β-CD 5 mg/ml) [mg/mL]	SMILES	amount dissolved with HP-β-CD ([1]; HP-β-CD 50 mg/ml) [mg/mL]	amount dissolved with β-CD ([1]; β-CD 10 mg/ml) [mg/mL]	amount dissolved with β-CD ([1]; β-CD 2 mg/ml) [mg/mL]	solubility [2] [µg/mL]	pKa (pKa value)	venous tolerability (Wistar rats)
0.03	0.05	0.11	0.31	0.03	0.22	CC1CCc2c(N3CCC(O)CC3)c(F)cc3c(=O)c(C(=O)O)cn1c23 (racemic) [Substance C, RS-(±)-9-fluoro-6,7-dihydro-8-(4-hydroxypiperidin-1-yl)-5-methyl-1-oxo-1H,5H-benzo[I,j]quinolizine-2-carboxylic acid]	1.03	0.40				
						C[C@H]1CCc2c(N3CCC(O)CC3)c(F)cc3c(=O)c(C(=O)O)cn1c23.N=C(N)NCCC[C@H](N)C(=O)O [Substance B, S-(−)-9-fluoro-6,7-dihydro-8-(4-hydroxypiperidin-1-yl)-5-methyl-1-oxo-1H,5H-benzo[I,j]quinolizine-2-carboxylic acid arginine salt]						superior venous tolerability
0.15	0.37	0.50	1.08	0.15	0.71	C[C@@H]1CCc2c(N3CCC(O)CC3)c(F)cc3c(=O)c(C(=O)O)cn1c23 [Substance D, R-(+)-9-fluoro-6,7-dihydro-8-(4-hydroxypiperidin-1-yl)-5-methyl-1-oxo-1H,5H-benzo[I,j]quinolizine-2-carboxylic acid]	5.01					

SMILES	amount dissolved with HP-β-CD ([1]; HP-β-CD 0 mg/ml) [mg/mL]	amount dissolved with HP-β-CD ([1]; HP-β-CD 2 mg/ml) [mg/mL]	amount dissolved with HP-β-CD ([1]; HP-β-CD 5 mg/ml) [mg/mL]	amount dissolved with HP-β-CD ([1]; HP-β-CD 10 mg/ml) [mg/mL]	amount dissolved with β-CD ([1]; β-CD 0 mg/ml) [mg/mL]	amount dissolved with β-CD ([1]; β-CD 5 mg/ml) [mg/mL]	amount dissolved with HP-β-CD ([1]; HP-β-CD 50 mg/ml) [mg/mL]	amount dissolved with β-CD ([1]; β-CD 10 mg/ml) [mg/mL]	amount dissolved with β-CD ([1]; β-CD 2 mg/ml) [mg/mL]	solubility [2] [µg/mL]	pKa (pKa value)	venous tolerability (Wistar rats)
C[C@H]1CCc2c(N3CCC(O)CC3)c(F)cc3c(=O)c(C(=O)O)cn1c23 [Substance A, S-(−)-9-fluoro-6,7-dihydro-8-(4-hydroxypiperidin-1-yl)-5-methyl-1-oxo-1H,5H-benzo[I,j]quinolizine-2-carboxylic acid]	0.04	0.21	0.28	0.55	0.04	0.27	2.67	0.53	0.12	< 1500	6.8	
